Experimental data from ChEMBL document CHEMBL3507680, “University of Dundee, Gates Library screen for HepG2 cell viability”.

Assay: Human HepG2 cell viability assay in 384 well format
Type: toxicity, cell-based
Design: dose 125 nL, time 70.5 hour; concentration not given beside the values
Conditions: HepG2 cells, read-out: Inhibition

Structure (SMILES) | cytotoxicity at 70.5 h
Cc1ccc(CN2CCC3(CCCN3C(=O)C(C)C)CC2)o1 | 5%
O=C(C1CCC1)N1C[C@@H]2CN(c3ccccc3)C(=O)[C@@H]2C1 | 11%
CO[C@H]1CCN(C(=O)c2cc(C)on2)C[C@@H]1Cc1ccccc1 | 5.73%
CN(C)CC(=O)N1CC2(CCN(S(=O)(=O)c3ccccc3)C2)C1 | -6.71%
NCC1[C@H]2CN(Cc3cccc(Cl)c3)C[C@@H]12 (stereo partly drawn) | -5.77%
CCS(=O)(=O)N1CCC2(CC(=O)N(c3ccccc3C)C2)C1 (stereo not drawn) | 21.9%
Cc1oncc1C(=O)N1CCC2(CC1)CN(S(C)(=O)=O)c1ccccc12 | -3.56%
COc1ccc(CN2C[C@@H]3CN(C(=O)[C@H]4CCCO4)C[C@@H]3C2=O)cc1 | -4.12%
CN(C)CC(=O)N1CCC2(CCN(Cc3cccc(F)c3)CC2)C1 | -8.05%
O=C(NCCc1ccccn1)[C@@]12CCO[C@@H]1CCN(c1ncccn1)C2 | -2.15%
COc1ccc(C[C@H]2CN(C(=O)C3CC3)CC[C@H]2OC)cc1 | 21.5%
CCN1C(=O)CCC12CCCN(CCc1ccccc1)C2 (stereo not drawn) | 34.9%
CN(C)CC(=O)N1CCC2(CC1)CN(Cc1ccccc1)C2 | 30.2%
CS(=O)(=O)N1CCN(c2ccc3ccc(C(=O)NC4CC4)cn23)CC1 | 0.444%
COCCN1CCN(c2ccc3ccc(C(=O)NC4CC4)cn23)CC1 | -2.48%
O=C(c1ccco1)N1CCC2(CCC(=O)N2Cc2ccncc2)CC1 | -2.64%
COc1ccc(CC(=O)N2CCC3(CC2)CCN(CC(C)C)C3=O)cc1 | -10.5%
CC(=O)N1[C@H](CN(C)C)C[C@@H]2CN(C(=O)c3ccsc3)CC[C@@H]21 | -12.2%
CCN1C(=O)CCC12CCN(C(=O)c1ccco1)CC2 | -11.8%
CC(=O)NCC(=O)N1CCC2(CC1)C(=O)N(CC1CC1)c1ccccc12 | -11.7%
O=C(NC1CC1)[C@H]1C[C@H]2OCC[C@H]2N(Cc2ccco2)C1 | -8.44%
CCOCC1CN(Cc2cc(C)on2)Cc2cn(C)nc21 (stereo not drawn) | 4.78%
O=C1NC(c2ccccc2)=N[C@@]12CC[C@@H]1CN(S(=O)(=O)C3CC3)C[C@@H]12 | 2.16%
CN(C)CCOCC1CN(C(=O)c2ccccn2)Cc2ccnn2C1 (stereo not drawn) | 6.38%
O=C(c1ccc(Cl)cc1)N1CCc2nc(C(=O)N3CCCC3)sc2CC1 | 7.75%

Structure (SMILES) | cytotoxicity at 70.5 h
COCCN1CCn2cc(CNC(=O)C3CCC3)nc2C1 | 1.63%
CNC(=O)c1nc2c(s1)CCN(C(=O)c1ccc(OC)cc1)CC2 | -7.87%
CN(C)CCOCC1CN(C(=O)c2cccnc2)Cc2ccnn2C1 (stereo not drawn) | -6.34%
Cc1cccc(N2CC3(CCN(S(=O)(=O)c4ccccc4)C3)CC2=O)c1 (stereo not drawn) | -6.5%
Cc1cnc(C(=O)N2CCC3(CC2)CC(c2ccncc2)C(=O)N3)cn1 (stereo not drawn) | -5.53%
CC(=O)N1CC(=O)N(c2ccccc2)CC12CCN(Cc1ccsc1)C2 (stereo not drawn) | -8.03%
CS(=O)(=O)N[C@@H]1CN(Cc2ccoc2)C[C@@H]2CCCO[C@@H]21 | -8.39%
Cc1cccc(C(=O)N2CCC3(CC2)CC(c2ccccc2)C(=O)N3)c1 (stereo not drawn) | -0.963%
O=C(Cc1ccccc1)N1CCC2(CCN2Cc2ccc(F)cc2)C1 (stereo not drawn) | 7.36%
COCCN1CCC2(CC1)CC(NC(=O)CC1CC1)c1ccccc1O2 (stereo not drawn) | -6.99%
O=C1N(Cc2cccc(F)c2)CCC12CCN(c1ccccn1)CC2 | -8.45%
COCC(=O)NC1CC2(CCN(CC3CC3)CC2)Oc2ccccc21 (stereo not drawn) | 18.1%
CN1C(=O)CC[C@]12CC[C@@H](NCc1ccsc1)CC2 | -5.76%
CN(C)CCN1C(=O)CCC12CCCN(C(=O)C1CC=CC1)CC2 (stereo not drawn) | -1.28%
COC1COC2(CCN(Cc3ccc4c(c3)OCO4)CC2)C1 (stereo not drawn) | 0.98%
Cc1cccc(CN2C[C@@H]3CN(C(=O)NC(C)C)C[C@@H]3C2=O)n1 | -12%
Cc1cccc(CN2C[C@@H]3CN(C(=O)c4ccco4)C[C@@H]3C2=O)n1 | -13.1%
O=C1CCCN1Cc1nnc2n1CCN(Cc1ccccn1)CC2 | -7.47%
Cc1cccc(CN2C[C@@H]3CN(C(=O)c4cnoc4C)C[C@@H]3C2=O)n1 | -5.42%
Cc1ccc(CN2CCc3nnc(CN4CCCC4=O)n3CC2)s1 | -7.74%
CC(C)Oc1ncnc2c1CCN(Cc1ccc(F)cc1)CC2 | -5.44%
CC(C)NC(=O)[C@H]1C[C@@H]2[C@@H](C1)OCCN2Cc1cccs1 | -2.88%
CNC(=O)[C@H]1C[C@H]2OCC[C@H]2N(CC2CC2)C1 | -3.14%
O=C(NC1CC1)[C@H]1C[C@H]2OCC[C@H]2N(Cc2ccc(F)cc2)C1 | -6.46%
CCOc1ncnc2c1CCN(Cc1cccs1)CC2 | -8.1%

Structure (SMILES) | cytotoxicity at 70.5 h
O=C([C@H]1C[C@H]2OCC[C@H]2N(Cc2ccco2)C1)N1CCCO1 | -14.8%
O=C(C1=CCCC1)N1CC[C@]2(C[C@H](OCc3cccnc3)CO2)C1 | -12.5%
COc1ccc(C[C@H]2CN(c3cc(OC)ncn3)CC[C@H]2OC)cc1 | 11.6%
Cn1cccc1C(=O)N[C@@H]1CN(Cc2cccs2)[C@@H]2COC[C@@H]21 | -3.46%
Cc1oncc1C(=O)N[C@@H]1CN(c2ncccn2)C[C@@H]2CCCO[C@@H]21 | -10.7%
CS(=O)(=O)N[C@@H]1CN(Cc2ccco2)C[C@@H]2CCCO[C@@H]21 | -6.79%
COCC1CC2(CCN(S(=O)(=O)C3CC3)CC2)CN1c1ncccn1 (stereo not drawn) | 14.2%
Cn1cc(CN2C[C@@H]3CCCO[C@@H]3[C@H](NC(=O)CC3CC3)C2)cn1 | 11.8%
COCCN1CCC2(CC1)CCN(Cc1ccccn1)CC2 | -1.25%
O=C1CC[C@]2(CC[C@@H](NCc3cccnc3)CC2)N1Cc1ccccc1 | -11.6%
O=C(c1n[nH]c2c1CN(C1CCOC1)CC2)N1CCOCC1 (stereo not drawn) | -2.91%
CCCN1CCC[C@]2(CCC(=O)N2Cc2ccncc2)[C@H]1CC | -4.44%
O=C([C@H]1CN(Cc2cccnc2)C[C@H]2OCC[C@@H]12)N1CCCO1 | -6.93%
O=C([C@H]1CN(Cc2ccncc2)C[C@H]2OCC[C@@H]12)N1CCCCO1 | -14.4%
CN(C)CCO[C@H]1CN(Cc2ccoc2)[C@@H]2COC[C@H]12 | 6.76%
O=C(N[C@@H]1CN(c2ncccn2)C[C@@H]2CCCO[C@@H]21)c1cccnc1 | 7.96%
CN(C)CCOCC1CN(C(=O)c2cccn2C)Cc2ccnn2C1 (stereo not drawn) | 8.36%
CN(C)CCO[C@H]1CN(Cc2ccc3c(c2)OCO3)[C@@H]2COC[C@H]12 | -4.2%
CN(C)CCOCC1CN(C(=O)c2ccnnc2)Cc2ccnn2C1 (stereo not drawn) | -14%
CN(C)CCOCC1CN(C(=O)c2ccsc2)Cc2ccnn2C1 (stereo not drawn) | -5.3%
CC(=O)N1CC(=O)N(c2cccnc2)CC12CCN(Cc1nccs1)C2 (stereo not drawn) | -0.821%
O=C1C[C@@H]2[C@H](CCN2Cc2ccccn2)N1Cc1ccncc1 | -4.28%
c1cncc(C[C@H]2[C@H](N3CCOCC3)CCN2Cc2nccs2)c1 | -3.76%
